The text below walks through data of paper PMC4962987, “Identification of Chalcones as Fasciola hepatica Cathepsin L Inhibitors Using a Comprehensive Experimental and Computational Approach” (PLoS Neglected Tropical Diseases, 2016).

Experiment [1] deals with T1, FhCL1 (Fasciola hepatica, UniProt Q7JNQ9).
T1 construct: gene CL1
Nature of the experiment: fluorogenic Z-VLK-AMC enzyme assay, % inhibition at […]. The format is biochemical.

Experiment [2] addresses T2, FhCL3 (Fasciola hepatica, UniProt B3TM67).
T2 construct: gene CL3
T2 sequence (B3TM67 88-306): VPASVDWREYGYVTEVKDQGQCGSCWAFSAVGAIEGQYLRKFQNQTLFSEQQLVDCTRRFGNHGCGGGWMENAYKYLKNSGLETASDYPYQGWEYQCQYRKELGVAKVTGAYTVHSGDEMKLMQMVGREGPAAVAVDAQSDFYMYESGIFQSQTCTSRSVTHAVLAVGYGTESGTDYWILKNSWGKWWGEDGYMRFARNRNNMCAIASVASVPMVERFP
Nature of the experiment: biochemical. Also noted: fluorogenic peptide-AMC hydrolysis (Z-VLK-AMC FhCL1, Tos-GPR-AMC FhCL3), initial rates, 5 min preincubation. The note with it: read-out: % inh. FhCL3. As to the method:
(§1) A 10 mM stock of each evaluated compound was prepared in dimethylsulfoxide (DMSO). Enzyme activity assays were conducted to evaluate the inhibitory capacity of the different compounds. FhCL1 and FhCL3 were used at nanomolar concentrations to measure initial rates during the first 10 min of the assay and compounds were tested at a moderate fixed dose of 10 μM. Briefly, each enzyme and compound were preincubated 5 minutes in a 96-well plate in 0.1M sodium phosphate buffer pH 6, 1 mM DTT and 1 mM EDTA at room temperature. The reaction was initiated by the addition of 20 μM of substrate, a synthetic peptide conjugated to the fluorophore 7-amino-4-methylcoumarin (AMC). Enzyme activity was measured by the increase in AMC fluorescence as peptide substrates were hydrolyzed (Z-VLK-AMC for FhCL1 and Tos-GPR-AMC for FhCL3) at an excitation wavelength of 340 nm and emission wavelength of 440 nm using a spectrofluorometer (Varioskan Thermo). Enzyme activity was expressed as RFU/s (relative fluorescence units of AMC released per unit of time). Each compound was tested in duplicate. A progress curve without enzyme was performed to control for non-catalyzed reactions between substrates and inhibitors and a spectrum from 300 to 450 nm wavelength was done for each inhibitor to verify that none of the compounds has optical activity in the measurement range. The percentage of enzyme inhibition was calculated as: 100 - (vi/vo) x 100, where vi and vo correspond to the initial rate of AMC fluorescence increase (RFU/s) with and without inhibitor, respectively. We evaluated forty flavonoids from three structural clusters of our own chemistry library as inhibitors of FhCL1 and FhCL3. Cluster I contained twenty-six chalcones modified in ring B (C1-C26, Fig 1A), cluster II contained naphtolchalcone derivatives (C27-C35, Fig 1B) and cluster III was composed of flavones modified in ring B (C36-C40, Fig 1B). Initially, we screened the compounds at a low concentration of 10 μM measuring initial rates during the first 10 min, finding activities ranging from 0% to 75% enzyme inhibition (Fig 1).

Experiment [3] addresses T3, FhCL1 (Fasciola hepatica, UniProt Q7JNQ9).
T3 construct: gene CL1
T3 sequence (Q7JNQ9 108-326): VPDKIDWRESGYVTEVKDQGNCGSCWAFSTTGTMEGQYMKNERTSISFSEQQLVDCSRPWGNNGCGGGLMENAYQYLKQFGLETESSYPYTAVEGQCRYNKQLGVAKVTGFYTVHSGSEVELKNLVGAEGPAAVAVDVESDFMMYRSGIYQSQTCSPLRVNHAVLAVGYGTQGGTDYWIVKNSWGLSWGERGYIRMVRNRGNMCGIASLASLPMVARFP
Nature of the experiment: biochemical. Also noted: fluorogenic peptide-AMC hydrolysis (Z-VLK-AMC FhCL1, Tos-GPR-AMC FhCL3), initial rates, 5 min preincubation. As to the method:
as §1

The target in experiment [4] is T4, FhCL3 (Fasciola hepatica, UniProt B3TM67).
T4 construct: gene CL3
The experiment can be described thus: biochemical. Also noted: fluorogenic peptide-AMC hydrolysis (Z-VLK-AMC FhCL1, Tos-GPR-AMC FhCL3), initial rates, 5 min preincubation. The note with it: read-out: % inh. FhCL3. The procedure:
as §1
The source holds these as a separate data set.

In experiment [5] the target is T1, FhCL1. Nature of the experiment: biochemical. Also noted: fluorogenic peptide-AMC hydrolysis (Z-VLK-AMC FhCL1, Tos-GPR-AMC FhCL3), initial rates, 5 min preincubation. As to the method: as §1
This is another data set of the same source.

The target of experiment [6] is T4, FhCL3. Nature of the experiment: fluorogenic Tos-GPR-AMC enzyme assay, % inhibition at […]. Format: biochemical.

In turn, `O=C(/C=C/c1ccc(Cl)cc1)c1ccccc1O` [C10] displayed an inhibition at 10 µM against FhCL1 [1] of 63%.

Consider `O=C(/C=C/c1ccccn1)c1ccccc1O` [C22], for which the inhibition at 10 µM was determined as 0% at FhCL3 [2] and 54 ± 7% against FhCL1 [3].

As for `O=C(/C=C/c1ccco1)c1ccccc1O` [C23], the results for the inhibition at 10 µM on FhCL3 [2] and against FhCL1 [3] were 4 ± 10% and 57 ± 8%, respectively.

Turning to `O=C(/C=C/c1cccs1)c1ccccc1O` [C24], the inhibition at 10 µM at FhCL3 [2] is 9 ± 11%; against FhCL1 [3], 52 ± 5%.

Regarding `O=C(/C=C/c1ccccc1)c1ccc2ccccc2c1` [C27], the inhibition at 10 µM was found to be 13 ± 4% on FhCL3 [2] and 65% against FhCL1 [1].

As for `O=C(/C=C/c1cccc2ccccc12)c1ccccc1` [C28], the inhibition at 10 µM at FhCL3 [2] stood at 39 ± 5%; at FhCL1 [3], 38 ± 3%.

Regarding `O=C(CC(CC(=O)c1ccccc1)c1cccc2ccccc12)c1ccccc1` [C29], the inhibition at 10 µM at FhCL3 [2] was found to be 27 ± 2%; against FhCL1 [3], 17 ± 9%.

For the compound `O=C(/C=C/c1ccc2ccccc2c1)c1ccccc1` [C30], the figures for the inhibition at 10 µM on FhCL3 [2] and against FhCL1 [3] were 38 ± 7% and 62 ± 2%, respectively.

As to `O=C(/C=C/c1ccc2ccccc2c1)c1ccccc1O` [C31], the inhibition at 10 µM at FhCL3 [2] stood at 41 ± 5%; against FhCL1 [3] it was 61 ± 2%.

For `O=C(/C=C/c1cccc2ccccc12)c1ccccc1O` [C32], the inhibition at 10 µM worked out at 32 ± 8% at FhCL3 [2] and 42 ± 6% at FhCL1 [3].

Consider `O=C(/C=C/c1ccc2ccccc2c1)c1ccc2ccccc2c1O` [C33], for which the inhibition at 10 µM on FhCL3 [2] stood at 29 ± 5%; at FhCL1 [3], 65 ± 6%.

Regarding `O=C(/C=C/c1cccc2ccccc12)c1c(O)ccc2ccccc12` [C34], the inhibition at 10 µM amounted to 65 ± 6% on FhCL3 [4] and 75 ± 4% against FhCL1 [5].

As for `O=C(/C=C/c1ccc2ccccc2c1)c1c(O)ccc2ccccc12` [C35], the inhibition at 10 µM on FhCL3 [2] is 44 ± 6%; at FhCL1 [3] it was 67 ± 3%; against FhCL1 [1], more than 50%; against FhCL3 [6], more than 50%.

`O=c1cc(-c2ccccc2)oc2ccccc12` [C36]: the inhibition at 10 µM worked out at 8 ± 4% on FhCL3 [2] and 5 ± 1% at FhCL1 [3].

On to `O=c1cc(-c2ccc(Cl)cc2)oc2ccccc12` [C37], for which the inhibition at 10 µM was found to be 17 ± 1% on FhCL3 [2] and 0% at FhCL1 [3].

Take `O=c1cc(-c2ccc(Br)cc2)oc2ccccc12` [C38]: the inhibition at 10 µM worked out at 19 ± 3% at FhCL3 [2] and 21 ± 10% against FhCL1 [3].

Consider `COc1ccc(-c2cc(=O)c3ccccc3o2)cc1` [C39], for which the inhibition at 10 µM was found to be 0% at FhCL3 [2] and 20 ± 7% against FhCL1 [3].

Regarding `O=c1c(O)c(-c2ccc(O)c(O)c2)oc2cc(O)cc(O)c12` [C40, Quercetin], the figures for the inhibition at 10 µM at FhCL3 [4] and at FhCL1 [5] were 8 ± 1% and 15 ± 8%, respectively.
